Read-outs that look alike come from different tables or passages of the source.
What was measured:
BRAF V600E = target: T1, BRAF V600E (Homo sapiens, UniProt P15056, V600E); test: Cellular assay of target protein degradation, T-Rex 293 cells stably transfected with HA-BRAF_V600E (HA immunofluorescence, high content imaging); type: cell-based
T1 construct: expressed in transfected cells
Outline: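 24 h compound exposure, 1 μM–0.1 nM final, 0.1% DMSO, 37 °C; cells induced with 1 ng/mL doxycycline. PFA fix, Triton permeabilize, anti-HA overnight 4 °C, Hoechst/phalloidin counterstain. Output: DC50, Dmax as % control.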

BRAF G466V = target: T2, BRAF G466V (Homo sapiens, UniProt P15056, G466V); test: Cellular assay of target protein degradation, T-Rex 293 cells stably transfected with HA-BRAF G466V (HA immunofluorescence, high content imaging); type: cell-based
T2 construct: expressed in transfected cells
Outline: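 24 h compound, 30 nM–3 pM final, 0.1% DMSO, 37° C; HA-BRAF G466V induced with 0.75 ng/mL doxycycline. PFA fix, Triton perm, anti-HA + Alexa fluor secondary, Hoechst/phalloidin counterstain; imaging. DC50, Dmax (% of control).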

[1] = half maximal degradation, T-Rex 293 HA-BRAF V600E; read-out: BRaf V600E DC50
[2] = maximum degradation observed, T-Rex 293 HA-BRAF V600E
[3] = half maximal degradation, T-Rex 293 HA-BRAF G466V; read-out: BRaf G466V DC50
[4] = maximum degradation observed, T-Rex 293 HA-BRAF G466V

T1 sequence (P15056 whole entry V600E): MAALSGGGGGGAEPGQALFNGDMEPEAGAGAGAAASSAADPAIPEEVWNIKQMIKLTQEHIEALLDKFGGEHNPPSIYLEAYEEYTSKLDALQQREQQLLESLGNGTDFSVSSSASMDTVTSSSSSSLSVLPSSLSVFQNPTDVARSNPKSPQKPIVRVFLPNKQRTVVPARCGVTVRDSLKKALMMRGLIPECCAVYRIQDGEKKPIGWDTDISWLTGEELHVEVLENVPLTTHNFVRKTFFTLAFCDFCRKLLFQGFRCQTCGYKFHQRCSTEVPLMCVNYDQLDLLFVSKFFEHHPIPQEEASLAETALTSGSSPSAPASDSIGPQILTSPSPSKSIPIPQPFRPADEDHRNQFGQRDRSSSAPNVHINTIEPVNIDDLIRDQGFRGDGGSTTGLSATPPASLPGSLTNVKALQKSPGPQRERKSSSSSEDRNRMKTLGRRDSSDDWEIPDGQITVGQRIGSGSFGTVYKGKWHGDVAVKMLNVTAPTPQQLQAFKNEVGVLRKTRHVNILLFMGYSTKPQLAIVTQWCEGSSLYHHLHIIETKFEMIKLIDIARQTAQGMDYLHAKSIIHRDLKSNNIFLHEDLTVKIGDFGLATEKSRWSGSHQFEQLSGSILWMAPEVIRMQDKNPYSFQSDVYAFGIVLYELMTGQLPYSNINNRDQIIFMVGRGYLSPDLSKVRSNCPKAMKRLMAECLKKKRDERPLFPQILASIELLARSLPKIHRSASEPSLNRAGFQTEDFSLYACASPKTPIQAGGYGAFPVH
T2 sequence (P15056 whole entry G466V): as the sequence (P15056 whole entry V600E) above, with G466V, E600V counted along it

DC50 (BRAF V600E; [1])	Dmax (BRAF V600E; [2])	DC50 (BRAF G466V; [3])	Dmax (BRAF G466V; [4])	SMILES	DC50 (BRAF V600E; read-out: BRaf V600E DC50; half maximal degradation, T-Rex 293 HA-BRAF V600E)	DC50 (BRAF G466V; read-out: BRaf G466V DC50; half maximal degradation, T-Rex 293 HA-BRAF G466V)
50 to 500 nM	35 to 70%	1 to 10 nM	35 to 70%	O=C1CCC(NC(=O)c2ccc(C3CCN(CC4CCN(c5ncc(-c6cnc7[nH]cc(C(=O)c8c(F)ccc(NS(=O)(=O)N9CC[C@@H](F)C9)c8F)c7c6)cn5)CC4)CC3)cc2F)C(=O)N1 (stereo partly drawn) [Compound 376, 4-(1-{[1-(5-{3-[2,6-difluoro-3-({[(3R)-3-fluoropyrrolidin-1-yl]sulfonyl}amino)benzoyl]-1H-pyrrolo[2,3-b]pyridin-5-yl}pyrimidin-2-yl)piperidin-4-yl]methyl}piperidin-4-yl)-N-(2,6-dioxopiperidin-3-yl)-2-fluorobenzamide]	–	–
> 500 nM	–	> 30 nM	–	O=C1CCC(N2Cc3cc(OC[C@@H]4CCN4c4ccc(-c5cnc6[nH]cc(C(=O)c7c(F)ccc(NS(=O)(=O)N8CC[C@@H](F)C8)c7F)c6c5)cc4)ccc3C2=O)C(=O)N1 (stereo partly drawn) [Compound 17, (3R)-N-[3-(5-{4-[(2S)-2-({[2-(2,6-dioxopiperidin-3-yl)-1-oxo-2,3-dihydro-1H-isoindol-5-yl]oxy}methyl)azetidin-1-yl]phenyl}-1H-pyrrolo[2,3-b]pyridine-3-carbonyl)-2,4-difluorophenyl]-3-fluoropyrrolidine-1-sulfonamide]	–	–
50 to 500 nM	< 35%	> 30 nM	–	CC1(N2Cc3cc(C4CCN(CC5CCN(c6ccc(-c7cnc8[nH]cc(C(=O)c9c(F)ccc(NS(=O)(=O)N%10CC[C@@H](F)C%10)c9F)c8c7)cc6)CC5)CC4)ccc3C2=O)CCC(=O)NC1=O (stereo partly drawn) [Compound 183, (3R)-N-[2,4-difluoro-3-(5-{4-[4-({4-[2-(3-methyl-2,6-dioxopiperidin-3-yl)-1-oxo-2,3-dihydro-1H-isoindol-5-yl]piperidin-1-yl}methyl)piperidin-1-yl]phenyl}-1H-pyrrolo[2,3-b]pyridine-3-carbonyl)phenyl]-3-fluoropyrrolidine-1-sulfonamide]	–	–
5 to 50 nM	35 to 70%	1 to 10 nM	> 70%	O=C1CCC(N2Cc3cc(C4CCN(CC5CCN(c6c(F)cc(-c7cnc8[nH]cc(C(=O)c9c(F)ccc(NS(=O)(=O)N%10CC[C@@H](F)C%10)c9F)c8c7)cc6F)CC5)CC4)ccc3C2=O)C(=O)N1 (stereo partly drawn) [Compound 94, (3R)-N-[3-(5-{4-[4-({4-[2-(2,6-dioxopiperidin-3-yl)-1-oxo-2,3-dihydro-1H-isoindol-5-yl]piperidin-1-yl}methyl)piperidin-1-yl]-3,5-difluorophenyl}-1H-pyrrolo[2,3-b]pyridine-3-carbonyl)-2,4-difluorophenyl]-3-fluoropyrrolidine-1-sulfonamide]	–	–
5 to 50 nM	35 to 70%	1 to 10 nM	35 to 70%	O=C1CC[C@H](N2Cc3cc(C4CCN(CC5CCN(c6ccc(-c7cnc8[nH]cc(C(=O)c9c(Cl)ccc(NS(=O)(=O)N%10CC[C@@H](F)C%10)c9Cl)c8c7)cc6)CC5)CC4)ccc3C2=O)C(=O)N1 [Compound 267, (3R)-N-{2,4-dichloro-3-[5-(4-{4-[(4-{2-[(3S)-2,6-dioxopiperidin-3-yl]-1-oxo-2,3-dihydro-1H-isoindol-5-yl}piperidin-1-yl)methyl]piperidin-1-yl}phenyl)-1H-pyrrolo [2,3-b]pyridine-3-carbonyl]phenyl}-3-fluoropyrrolidine-1-sulfonamide]	–	–
50 to 500 nM	35 to 70%	1 to 10 nM	> 70%	O=C1CCC(N2Cc3cc(CCOCCN4CCC(c5ccc(-c6cnc7[nH]cc(C(=O)c8c(F)ccc(NS(=O)(=O)N9CC[C@@H](F)C9)c8F)c7c6)cc5)CC4)ccc3C2=O)C(=O)N1 (stereo partly drawn) [Compound 151, (3R)-N-[3-(5-{4-[1-(2-{2-[2-(2,6-dioxopiperidin-3-yl)-1-oxo-2,3-dihydro-1H-isoindol-5-yl]ethoxy}ethyl)piperidin-4-yl]phenyl}-1H-pyrrolo[2,3-b]pyridine-3-carbonyl)-2,4-difluorophenyl]-3-fluoropyrrolidine-1-sulfonamide]	–	–
> 500 nM	–	1 to 10 nM	> 70%	O=C1CC[C@@H](N2Cc3cc([C@H](O)CCN4CCC(c5ccc(-c6cnc7[nH]cc(C(=O)c8c(F)ccc(NS(=O)(=O)N9CC[C@@H](F)C9)c8F)c7c6)cc5)CC4)ccc3C2=O)C(=O)N1 [Compound 68, (3R)—N-[3-[5-(4-[1-[(3R)-3-[2-[(3R)-2,6-dioxopiperidin-3-yl]-1-oxo-3H-isoindol-5-yl]-3-hydroxypropyl]piperidin-4-yl]phenyl)-1H-pyrrolo[2,3-b]pyridine-3-carbonyl]-2,4-difluorophenyl]-3-fluoropyrrolidine-1-sulfonamide]	–	–
5 to 50 nM	35 to 70%	1 to 10 nM	35 to 70%	O=C1CC[C@H](NC(=O)c2ccc(N3CC4(CN(CC5CCN(c6ccc(-c7cnc8[nH]cc(C(=O)c9c(F)ccc(NS(=O)(=O)N%10CCC(F)(F)C%10)c9F)c8c7)cc6)CC5)C4)C3)cc2F)C(=O)N1 [Compound 351, 4-{6-[(1-{4-[3-(3-{[(3,3-difluoropyrrolidin-1-yl)sulfonyl]amino}-2,6-difluorobenzoyl)-1H-pyrrolo[2,3-b]pyridin-5-yl]phenyl}piperidin-4-yl)methyl}-2,6-diazaspiro[3.3]heptan-2-yl}-N-[(3S)-2,6-dioxopiperidin-3-yl]-2-fluorobenzamide]	–	–
50 to 500 nM	< 35%	1 to 10 nM	> 70%	O=C1CCC(N2Cc3cc(N4CCC(CN5CC(C6(c7ccc(-c8cnc9[nH]cc(C(=O)c%10c(F)ccc(NS(=O)(=O)N%11CC[C@@H](F)C%11)c%10F)c9c8)cc7)CC6)C5)CC4)ccc3C2=O)C(=O)N1 (stereo partly drawn) [Compound 316, (3R)-N-{3-[5-(4-{1-[1-({1-[2-(2,6-dioxopiperidin-3-yl)-1-oxo-2,3-dihydro-1H-isoindol-5-yl]piperidin-4-yl}methyl)azetidin-3-yl]cyclopropyl}phenyl)-1H-pyrrolo[2,3-b]pyridine-3-carbonyl]-2,4-difluorophenyl}-3-fluoropyrrolidine-1-sulfonamide]	–	–
5 to 50 nM	35 to 70%	1 to 10 nM	> 70%	O=C1CC[C@H](N2Cc3cc(N4CCN(CC5CCN(c6ccc(-c7cnc8[nH]cc(C(=O)c9c(F)ccc(NS(=O)(=O)N%10CC[C@@H](F)C%10)c9F)c8c7)cc6)CC5)CC4)ccc3C2=O)C(=O)N1 [Compound 219, (3R)-N-{3-[5-(4-{4-[(4-{2-[(3S)-2,6-dioxopiperidin-3-yl]-1-oxo-2,3-dihydro-1H-isoindol-5-yl}piperazin-1-yl)methyl]piperidin-1-yl}phenyl)-1H-pyrrolo [2,3-b]pyridine-3-carbonyl]-2,4-difluorophenyl}-3-fluoropyrrolidine-1-sulfonamide]	–	–

SMILES	DC50 (BRAF V600E; [1])	Dmax (BRAF V600E; [2])	DC50 (BRAF G466V; [3])	Dmax (BRAF G466V; [4])	DC50 (BRAF V600E; read-out: BRaf V600E DC50; half maximal degradation, T-Rex 293 HA-BRAF V600E)	DC50 (BRAF G466V; read-out: BRaf G466V DC50; half maximal degradation, T-Rex 293 HA-BRAF G466V)
O=C1CCC(N2Cc3cc(N4CCC(CN5CCCN(c6ccc(-c7cnc8[nH]cc(C(=O)c9c(F)ccc(NS(=O)(=O)N%10CC[C@@H](F)C%10)c9F)c8c7)cc6)CC5)CC4)ccc3C2=O)C(=O)N1 (stereo partly drawn) [Compound 322, (3R)-N-[3-(5-{4-[4-({1-[2-(2,6-dioxopiperidin-3-yl)-1-oxo-2,3-dihydro-1H-isoindol-5-yl]piperidin-4-yl}methyl)-1,4-diazepan-1-yl]phenyl}-1H-pyrrolo[2,3-b]pyridine-3-carbonyl)-2,4-difluorophenyl]-3-fluoropyrrolidine-1-sulfonamide]	–	< 35%	–	35 to 70%	50 to 500 nM	1 to 10 nM
